From patent publication US20080118573A1, “Use of Heavy Metals in the Treatment of Biofilms” (priority 2004, published 2008)
Values after ≈ are worked out from the molar mass of the structure shown. Where two headings read alike, the source gives them in different places.

Assays:
Type in all cases: cell-based
[1] = test system: Pseudomonas aeruginosa ATCC 27853 planktonic and biofilm bacteria; settings: LB+B1, 24 h exposure; for MIC: P. aeruginosa ATCC 27853; for MBEC: P. aeruginosa ATCC 27853 biofilm; for MBC: P. aeruginosa ATCC 27853 planktonic
[2] = test system: Staphylococcus aureus ATCC 29213 planktonic and biofilm bacteria; settings: LB+B1, 24 h exposure; for MIC: S. aureus ATCC 29213; for MBEC: S. aureus ATCC 29213 biofilm; for MBC: S. aureus ATCC 29213 planktonic
[3] = test system: Escherichia coli JM109 planktonic and biofilm bacteria; settings: LB+B1, 24 h exposure; for MIC: E. coli JM109; for MBEC: E. coli JM109 biofilm; for MBC: E. coli JM109 planktonic
[4] = test system: Escherichia coli JM109 planktonic and biofilm bacteria; experiment: MBEC-HTP antibiotic susceptibility, E. coli; settings: for MBEC: E. coli JM109 biofilm
Protocol: (§1) Luria-Bertani medium was chosen for two reasons: 1) its established use in studies of metal resistance, and 2) because of the use of rich media in NCCLS testing protocols for antimicrobial resistance. Antibiotic resistance assays were performed using cation-adjusted Mueller-Hinton broth (CA-MHB, BDH Inc.) and subcultures, MBC and MBEC bacterial counts were performed using trypticase soy agar (TSA, Difco).
(§2) The present study used a novel high throughput method for screening biofilm susceptibility to metal cations and oxyanions: the MBEC device (MBEC Bioproducts Inc., Edmonton, Alberta, Canada, http://www.mbec.ca). The MBEC high throughput (MBEC-HTP) assay system consists of a shallow trough into which a plastic lid with 96 pegs fits. This peg lid also fits over a standard 96-well microtitre plate which can subsequently be used to setup serial dilutions of antimicrobial compounds. The bottom half of the MBEC device is a trough that has shallow channels that direct flow of an inoculated suspension over the pegs on the lid.
(§3) The inoculum was standardized to a 1.0 McFarland standard and verified by viable counts. The 1.0 McFarland standard inoculum was diluted 30-fold with growth media, which served as the growth suspension to inoculate the MBECJ device.
(§4) P. aeruginosa was incubated for 9 h, S. aureus for 24 h and E. coli for 24 h to generate approximately equivalent biofilms of 6.0×10^6 cfu/peg. Following the incubation period, growth of biofilm and planktonic cultures in the MBECJ device were discerned and verified by viable cell counts.
(§5) Chloramphenicol (Sigma) was prepared in 50% ethanol and treated identically to the other antibiotics. 10% ethanol was added to the growth controls for chloramphenicol assays. […] Starting with the working solutions, serial two-fold dilutions were made in the wells of a 96-well plate (the challenge plate), leaving the first well of each row as a sterility control and the second as a growth control (i.e. no antibiotic).

[5] = test system: Pseudomonas aeruginosa ATCC 27853 planktonic and biofilm bacteria; experiment: MBEC-HTP antibiotic susceptibility, P. aeruginosa; settings: for MBEC: P. aeruginosa ATCC 27853 biofilm; for MBC / MIC: Pseudomonas aeruginosa
Protocol: as §1, §2, §3, §4, §5

[6] = test system: Staphylococcus aureus ATCC 29213 planktonic and biofilm bacteria; experiment: MBEC-HTP antibiotic susceptibility, S. aureus; settings: CA-MHB, 24 h exposure
Protocol: as §1, §2, §3, §4, §5

[7] = test system: Pseudomonas aeruginosa biofilms; experiment: Metal and antibiotic combination assay; settings: for MBC / MIC: Pseudomonas aeruginosa; for MBC / MIC / MBEC: median of 4 replicates; for MBC: read-out: MBC; for MIC: read-out: MIC
Protocol: Cells were grown to a mean density of 6.0×10^6 cfu/peg in LB+B1 media.
• 1. […] All data are median values based on 4 replicates.

[8] = ATCC27853, P. aeruginosa ATCC 27853, CA-MHB, 24 h exposure, read-out: MIC
[9] = ATCC27853, P. aeruginosa ATCC 27853 planktonic, CA-MHB, 24 h exposure, read-out: MBC
[10] = antibiotic in combination with 200 μg/ml Cu^2+
[11] = antibiotic or heavy metal alone, LB+B1

Compound	MIC [1]	MBEC [1]	MBC [1]	MIC [2]	MBEC [2]	MBC [2]	MIC [3]	MBEC [3]	MBC [3]	MBEC ([4]; CA-MHB, 24 h exposure)	MBEC ([5]; CA-MHB, 24 h exposure)	other results
Sodium hydrogen arsenate [AsO4^2−]	>59000 µM	>59 mM	>59000 µM	15000 ± 0 µM	>59 mM	>59000 µM	7400 ± 0 µM	>60 mM	>60000 µM			
CCN1CCN(C(=O)N[C@@H](C(=O)N[C@@H]2C(=O)N3[C@@H]2SC(C)(C)[C@@H]3C(=O)O)c2ccccc2)C(=O)C1=O [Pipperacillin, Piperacillin]										32 ± 0 µg/mL		MIC ([4]; E. coli JM109, CA-MHB, 24 h exposure): 4 ± 0 µg/mL (≈ 7.73 µM); MBC ([4]; E. coli JM109 planktonic, CA-MHB, 24 h exposure): 16 ± 0 µg/mL (≈ 30.9 µM)
CC1(C)S[C@@H]2[C@H](NC(=O)[C@H](N)c3ccccc3)C(=O)N2[C@H]1C(=O)O [Ampicillin]										1024 ± 0 µg/mL	>512 µg/mL	MBC ([4]; Escherichia coli, 24 h): 64 µg/mL (≈ 183 µM); MIC ([4]; Escherichia coli, 24 h): 4 µg/mL (≈ 11.4 µM); MBC ([5]; ATCC27853, 24 h): > 512 µg/mL; MIC ([5]; ATCC27853, 24 h): > 512 µg/mL
O=C(N[C@H](CO)[C@H](O)c1ccc([N+](=O)[O-])cc1)C(Cl)Cl [Chloramphenicol]										>256 µg/mL	>512 µg/mL	MIC ([4]; Escherichia coli, E. coli JM109, CA-MHB, 24 h exposure, read-out: MIC): 3.5 ± 1 µg/mL (≈ 10.8 µM); MBC ([4]; Escherichia coli, E. coli JM109 planktonic, CA-MHB, 24 h exposure, read-out: MBC): 128 µg/mL (≈ 396 µM); MBEC ([6]; S. aureus ATCC 29213 biofilm): >1024 µg/mL; MIC ([6]; Staphylococcus aureus, ATCC29213, S. aureus ATCC 29213, read-out: MIC): 80 ± 32 µg/mL (≈ 248 µM); MBC ([6]; Staphylococcus aureus, ATCC29213, S. aureus ATCC 29213 planktonic, read-out: MBC): 1020 µg/mL (≈ 3170 µM); MIC [5, 8]: > 512 µg/mL; MBC [5, 9]: > 512 µg/mL
[Na+].[Na+].[O]=[Mo](=[O])([O-])[O-] [MoO4^2−, sodium molybdate]	>102000 µM	>102 mM	>102000 µM	>102000 µM	>102 mM	>102000 µM	>102000 µM	>102 mM	>102000 µM			
O=[Te]([O-])[O-].[K+].[K+] [TeO3^2−, potassium tellurite]	730 ± 0 µM	4.4 ± 1.7 mM	5100 ± 0 µM	180 ± 0 µM	0.73 ± 0 mM	>730 µM	6 µM	0.014 mM	16 µM			
[Cl][Hg][Cl] [Hg^2+, mercuric chloride]	380 ± 140 µM	0.43 ± 0.16 mM	530 ± 390 µM	20 µM	0.080 ± 0 mM	80 ± 0 µM	70 ± 50 µM	0.07 ± 0.05 mM	70 ± 50 µM			
NCC[C@H](O)C(=O)N[C@@H]1C[C@H](N)[C@@H](O[C@H]2O[C@H](CN)[C@@H](O)[C@H](O)[C@H]2O)[C@H](O)[C@H]1O[C@H]1O[C@H](CO)[C@@H](O)[C@H](N)[C@H]1O [Amikacin]											>512 µg/mL	MIC [5, 8]: 32 µg/mL (≈ 54.6 µM); MBC [5, 9]: 224 ± 64 µg/mL (≈ 383 µM); MIC in the presence of Cu^2+, times less than the MIC for the antibiotic alone ([7]; 200 μg/ml Cu^2+): 256 times; MBC [7, 10]: > 64 µg/mL; MIC [7, 10]: 0.125 µg/mL; MBC [7, 11]: 256 µg/mL; MIC [7, 11]: 32 µg/mL; MBEC [7, 10]: >64 µg/mL; MBEC [7, 11]: >512 µg/mL
O=[Te](=O)([O-])[O-].[K+].[K+] [TeO4^2−, potassium tellurate]	>1300 µM	>1.3 mM	>1300 µM	670 ± 0 µM	1.3 ± 0.7 mM	>1300 µM	60 ± 20 µM	0.42 ± 0.17 mM	420 ± 170 µM			
